# Laboratory results taken from patent publication US20030139296A1 (priority 2000, published 2003).
# Counter-ions that a name gives are not always drawn. Like-named read-outs stand apart in the source and are kept apart here.
# What was measured:
# Magnaporthe grisea KJ201 [1] = format: in vivo; settings: rice blast; for Degree of the disease severity: 1 week after inoculation, scale 0~10; for Control value(%): versus Tween 80-treated rice
# [2] = system: PR1, PBZ1 and POX22.3 defense genes; settings: FIG. 1
# [3] = system: PR1, PBZ1 and POX22.3 defense genes; settings: in vivo
# [4] = system: PR1, PBZ1 and POX22.3 defense genes
# [5] = system: PAL, APX and HMGR defense genes; settings: tomato stem soaked in aqueous solution at 50 u uM; FIG. 4
# [6] = system: Xanthomonas oryzae pv. oryzae KX021; settings: bacterial leaf blight in rice; for Degree of the disease severity: distance from inoculated points to symptoms; for Control value(%): versus Tween 80-treated rice, HCl
# Magnaporthe grisea KJ201 [7] = settings: rice blast; for Degree of the disease severity: 28° C., 1 day, inoculated at fourth-leaf stage, scale 0~10; for Control value(%): versus distilled water-treated rice, HCl
# defense genes in plants = settings: compared among vitamin B1, vitamin B6 and vitamin C
# [8] = 20 mM + Tween 80 (250 ppm) spray
# [9] = 50 mM + Tween 80 (250 ppm) spray
smiles,measurement,setting,value
"Cc1ncc(C[n+]2csc(CCO)c2C)c(N)n1 [Vitamin B1 HCl, thiamine HCl]",Degree of the disease severity,"Magnaporthe grisea KJ201 [1]; 5 mM + Tween 80 (250 ppm) spray, inoculated 4 hours after treatment",6.5 ± 0.6
same,Control value(%),"Magnaporthe grisea KJ201 [1]; 5 mM + Tween 80 (250 ppm) spray, HCl",21.2 ± 7.2%
same,Control value(%),"Magnaporthe grisea KJ201 [1]; 5 mM + Tween 80 (250 ppm) spray, listed as vitamin B1 hydrochloride, HCl",not more than 30%
same,Degree of the disease severity,Magnaporthe grisea KJ201 [1]; 10 mM + Tween 80 (250 ppm) spray,5.8 ± 1.5
same,Control value(%),"Magnaporthe grisea KJ201 [1]; 10 mM + Tween 80 (250 ppm) spray, HCl",30.3 ± 18.2%
same,Control value(%),"Magnaporthe grisea KJ201 [1]; 10 mM + Tween 80 (250 ppm) spray, listed as vitamin B1 hydrochloride, HCl",not more than 30%
same,Degree of the disease severity,Magnaporthe grisea KJ201 [1]; [8],2.3 ± 1.4
same,Control value(%),Magnaporthe grisea KJ201 [1]; [8],72.7 ± 17.0%
same,Degree of the disease severity,Magnaporthe grisea KJ201 [1]; [9],2.8 ± 1.5
same,Control value(%),Magnaporthe grisea KJ201 [1]; [9],66.7 ± 18.2%
same,Degree of the disease severity,Magnaporthe grisea KJ201 [1]; 100 mM + Tween 80 (250 ppm) spray,1.1 ± 0.8
same,Control value(%),"Magnaporthe grisea KJ201 [1]; 100 mM + Tween 80 (250 ppm) spray, HCl",87.3 ± 9.7%
same,Control value(%),"Magnaporthe grisea KJ201 [1]; 100 mM + Tween 80 (250 ppm) spray, listed as vitamin B1 hydrochloride, HCl",about 87%
same,Expression of defense genes compared to groups A and B,[2]; rice treated with 50 mM and then inoculated with rice blast fungus (group C),considerably increased
same,Time at which expression of defense genes was detected,[2]; rice treated with 50 mM only (group B),24 h
same,Time after inoculation at which expression of all three defense genes was detected,"[2]; rice treated with 50 mM, inoculated with rice blast fungus 24 hours later (group C)",24 h
same,Time after treatment at which all defense genes tested were induced to express,[3],4 h
same,Time after inoculation at which expression of all three defense genes was detected,[4]; in vivo,24 h
same,Time after treatment at which expression of defense genes was detected,[4]; in vivo,24 h
same,Expression of defense genes compared to groups A and B,"[4]; rice treated with 50 mM and then inoculated with leaf blight bacteria (group C), FIG. 3",considerably increased
same,Time by which all the defense genes were expressed,[5],≤ 1 h
same,Degree of the disease severity,"[6]; 5 mM + Tween 80 (250 ppm) spray, 1 week after inoculation",8.7 ± 0.6
same,Control value(%),[6]; 5 mM + Tween 80 (250 ppm),10.3 ± 6.2%
same,Control value(%),"[6]; 5 mM + Tween 80 (250 ppm), listed as vitamin B1 hydrochloride",about 30%
same,Degree of the disease severity,"[6]; 10 mM + Tween 80 (250 ppm) spray, 1 week",4.2 ± 1.4
same,Control value(%),[6]; 10 mM + Tween 80 (250 ppm),56.3 ± 14.4%
same,Control value(%),"[6]; 10 mM + Tween 80 (250 ppm), listed as vitamin B1 hydrochloride",not less than 56%
same,Control value(%),[6]; 20 mM + Tween 80 (250 ppm),68.3 ± 25.9%
same,Control value(%),"[6]; 20 mM + Tween 80 (250 ppm), listed as vitamin B1 hydrochloride",≥ 68%
same,Degree of the disease severity,"[6]; 50 mM + Tween 80 (250 ppm) spray, 1 week",0.2 ± 0.3
same,Control value(%),[6]; 50 mM + Tween 80 (250 ppm),97.6 ± 3.1%
same,Control value(%),"[6]; 50 mM + Tween 80 (250 ppm), listed as vitamin B1 hydrochloride",≥ 97%
same,Degree of the disease severity,"[6]; 100 mM + Tween 80 (250 ppm) spray, 1 week",0.3 ± 0.1
same,Control value(%),[6]; 100 mM + Tween 80 (250 ppm),97.2 ± 1.0%
same,Control value(%),"[6]; 100 mM + Tween 80 (250 ppm), listed as vitamin B1 hydrochloride",≥ 97%
same,Degree of the disease severity,Magnaporthe grisea KJ201 [7]; seeds soaked at 20 mM,5.4 ± 3.2
same,Control value(%),Magnaporthe grisea KJ201 [7]; seeds soaked at 20 mM,44.4 ± 32.8%
same,Control value(%),"Magnaporthe grisea KJ201 [7]; seeds soaked at 20 mM, listed as vitamin B1 hydrochloride",44%
same,Degree of the disease severity,Magnaporthe grisea KJ201 [7]; seeds soaked at 50 mM,2.3 ± 1.9
same,Control value(%),Magnaporthe grisea KJ201 [7]; seeds soaked at 50 mM,76.8 ± 19.5%
same,Control value(%),"Magnaporthe grisea KJ201 [7]; seeds soaked at 50 mM, listed as vitamin B1 hydrochloride",77%
Cc1ncc(C[n+]2csc(CCO)c2C)c(N)n1 [vitamin B1],Effectiveness for inducing the expression of defense genes in plants,defense genes in plants,the most effective
